Paper doi:10.1101/2023.11.02.565282v1 (biorxiv, 2023)
Where two headings read alike, the source gives them in different places.

How the values were obtained:
[1] = biological target: T1, GluK2(VCQ)2a (Rattus norvegicus, UniProt P42260, I567V/Y571C); assay: calcium-sensitive fluorescence assay; assay type: cell-based; details: agonist; with 150 µM BPAM344; Fluo buffer pH 7.4
[2] = biological target: T1, GluK2(VCQ)2a; assay: calcium-sensitive fluorescence assay; assay type: cell-based

T1 sequence (P42260 32-908 I567V/Y571C): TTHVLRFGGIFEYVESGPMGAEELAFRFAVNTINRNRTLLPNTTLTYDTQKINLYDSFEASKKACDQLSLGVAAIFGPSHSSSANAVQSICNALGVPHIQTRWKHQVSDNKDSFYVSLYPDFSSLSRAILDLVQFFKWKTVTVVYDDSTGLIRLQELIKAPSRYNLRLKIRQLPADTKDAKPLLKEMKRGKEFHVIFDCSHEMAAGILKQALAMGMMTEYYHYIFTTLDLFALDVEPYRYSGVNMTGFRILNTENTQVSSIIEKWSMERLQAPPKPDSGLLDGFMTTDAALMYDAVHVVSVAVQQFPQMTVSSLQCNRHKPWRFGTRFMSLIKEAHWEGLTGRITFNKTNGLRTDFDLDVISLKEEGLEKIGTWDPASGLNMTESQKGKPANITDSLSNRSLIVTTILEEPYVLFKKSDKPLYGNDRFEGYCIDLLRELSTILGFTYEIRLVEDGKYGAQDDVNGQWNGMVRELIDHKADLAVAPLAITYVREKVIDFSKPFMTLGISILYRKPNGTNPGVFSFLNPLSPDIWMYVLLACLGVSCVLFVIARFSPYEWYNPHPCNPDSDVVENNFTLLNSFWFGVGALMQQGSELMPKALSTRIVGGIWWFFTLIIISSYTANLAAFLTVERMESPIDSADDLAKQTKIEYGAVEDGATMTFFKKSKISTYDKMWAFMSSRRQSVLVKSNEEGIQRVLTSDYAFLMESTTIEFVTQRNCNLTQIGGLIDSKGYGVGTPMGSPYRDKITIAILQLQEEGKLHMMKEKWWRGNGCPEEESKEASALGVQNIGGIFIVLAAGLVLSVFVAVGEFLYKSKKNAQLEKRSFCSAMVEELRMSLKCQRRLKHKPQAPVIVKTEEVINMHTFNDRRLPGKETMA

EC50 [2] | Compound | EC50 [1]
– | C/C(=C/C=C/[C@@H](C)C(=O)O)[C@H]1CN[C@H](C(=O)O)[C@H]1CC(=O)O [domoate] | 1.33 µM
75.4 µM | O=S1(=O)NCN(C2CC2)c2ccc(F)cc21 [BPAM344] | –
